Values of other authors as cited in patent publication US10398653B2, “Solid preparations containing tofogliflozin and process of producing the same” (CHUGAI SEIYAKU KABUSHIKI KAISHA, priority 2013, dated 2019).

Molecular target: T1, SGLT2 (Homo sapiens, UniProt P31639)
T1 sequence (P31639 1-672): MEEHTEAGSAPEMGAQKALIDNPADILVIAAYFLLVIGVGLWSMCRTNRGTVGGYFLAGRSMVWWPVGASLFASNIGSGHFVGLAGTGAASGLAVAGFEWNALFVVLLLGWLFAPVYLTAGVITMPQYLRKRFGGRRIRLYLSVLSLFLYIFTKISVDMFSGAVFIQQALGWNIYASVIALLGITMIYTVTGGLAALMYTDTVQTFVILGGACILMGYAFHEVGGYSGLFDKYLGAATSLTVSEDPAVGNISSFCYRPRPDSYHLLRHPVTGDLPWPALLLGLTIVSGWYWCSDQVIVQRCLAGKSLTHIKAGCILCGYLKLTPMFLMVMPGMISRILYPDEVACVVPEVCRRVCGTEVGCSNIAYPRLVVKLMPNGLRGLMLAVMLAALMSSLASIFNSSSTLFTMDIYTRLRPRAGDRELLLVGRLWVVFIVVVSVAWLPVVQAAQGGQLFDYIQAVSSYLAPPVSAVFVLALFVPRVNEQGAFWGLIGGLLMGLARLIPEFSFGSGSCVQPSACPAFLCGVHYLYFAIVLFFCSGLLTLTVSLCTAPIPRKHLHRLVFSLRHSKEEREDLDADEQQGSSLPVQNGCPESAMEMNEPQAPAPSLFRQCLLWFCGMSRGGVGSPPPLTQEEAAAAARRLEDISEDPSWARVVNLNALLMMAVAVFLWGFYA
Conditions: as stated in Patent Document 1

For CCc1ccc(Cc2ccc3c(c2)[C@]2(OC3)O[C@H](CO)[C@@H](O)[C@H](O)[C@H]2O)cc1 [tofogliflozin, 1,1-Anhydro-1-C-[5-(4-ethylphenyl)methyl-2-(hydroxymethyl)phenyl]-β-D-glucopyranose], the “Inhibitory activity against SGLT2” value is listed as “excellent inhibitory activity”.
